Laboratory results from publication PMC6409085, “Three odorant-binding proteins are involved in the behavioral response of Sogatella furcifera to rice plant volatiles” (PeerJ, 2019).
“And” between values parts separate entries of the source, which are not always exact repeats. Equal entries are not always repeated.

Key:
S. furcifera adults = assay: Y-tube olfactometer behavioral trials; format: in vivo, Sogatella furcifera; settings: odorant 50 µL/L vs hexane; adults
Outline: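 Single S. furcifera adults (2 days post-emergence, starved 0.5 h) chose between odorant (100 µL of 50 µL/L on filter paper) and hexane control in a glass Y-tube, charcoal-filtered humidified air 300 mL/min per arm, 25 ± 1 °C, 50% RH. Choice scored if insect passed half an arm and stayed >1 min within 10 min; 45 insects per compound, chi-squared test.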

SfurOBP11 = SfurOBP11 (Sogatella furcifera, UniProt V5T6E3); assay: biochemical; format: binding
Chain of SfurOBP11 (V5T6E3 entry or part of it): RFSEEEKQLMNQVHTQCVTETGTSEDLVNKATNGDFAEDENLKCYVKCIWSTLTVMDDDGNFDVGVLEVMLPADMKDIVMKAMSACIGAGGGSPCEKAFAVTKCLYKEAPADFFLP
Outline: (§1)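 Fluorescence competitive binding used 2.0 µM SfurOBP and 2.0 µM 1-NPN reporter in 50 mM Tris-HCl, pH 7.4, with odorants at 2-20 µM. Fluorescence was read 2 min after adding the odorant (excitation 337 nm, emission 390-490 nm), in triplicate. Ki was calculated from IC50 as IC50/(1 + [1-NPN]/K1-NPN).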

SfurOBP1 = SfurOBP1 (Sogatella furcifera, UniProt V5T8N5); assay: biochemical; format: binding; settings: for Fluorescence competitive binding assay, fluorescence intensity: OBP1, three replicate columns
Chain of SfurOBP1 (V5T8N5 entry or part of it): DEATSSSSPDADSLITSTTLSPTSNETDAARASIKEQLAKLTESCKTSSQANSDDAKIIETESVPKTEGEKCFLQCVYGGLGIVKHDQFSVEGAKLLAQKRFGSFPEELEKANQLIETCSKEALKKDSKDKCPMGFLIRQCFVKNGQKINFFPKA
Outline: as §1

SfurOBP3 = SfurOBP3 (Sogatella furcifera, UniProt V5T818); assay: biochemical; format: binding; settings: for Fluorescence competitive binding assay, fluorescence intensity: OBP3, three replicate columns;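 on Fluorescence competitive binding assay, fluorescence intensity: competitor odorant at 2 to 20 µM with protein and 1-NPN both 2.0 µM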
Chain of SfurOBP3 (V5T818 entry or part of it): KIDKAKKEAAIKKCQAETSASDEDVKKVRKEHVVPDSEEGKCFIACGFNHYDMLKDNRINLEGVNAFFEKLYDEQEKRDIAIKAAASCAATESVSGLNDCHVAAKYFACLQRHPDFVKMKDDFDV
Outline: as §1

SfurOBP2 = SfurOBP2 (Sogatella furcifera, UniProt V5T759); assay: biochemical; format: binding
Chain of SfurOBP2 (V5T759 entry or part of it): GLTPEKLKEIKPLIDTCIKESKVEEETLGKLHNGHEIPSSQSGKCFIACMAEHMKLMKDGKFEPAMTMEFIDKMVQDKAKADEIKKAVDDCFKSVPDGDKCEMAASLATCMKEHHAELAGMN
Outline: as §1
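Wherever Fluorescence competitive binding assay, fluorescence intensity is given: competitor odorant at 2 to 20 µM with protein and 1-NPN both 2.0 µM.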

C=CC(C)(O)CCC=C(C)C (stereo not drawn) [linalool]
number of insects choosing hexane arm (S. furcifera adults): 14
number of insects choosing volatilies arm (S. furcifera adults): 14
number of insects failed (no choice) (S. furcifera adults): 12
IC50 (SfurOBP11): > 20 µM
Fluorescence intensity, fluorescence competitive binding assay, OBP11 (SfurOBP11; ligand concentration 2, replicate 1): 34595
Fluorescence intensity, fluorescence competitive binding assay, OBP11 (SfurOBP11; ligand concentration 2, replicate 2): 35145
Fluorescence intensity, fluorescence competitive binding assay, OBP11 (SfurOBP11; ligand concentration 2, replicate 3): 35691
Fluorescence intensity, fluorescence competitive binding assay, OBP11 (SfurOBP11; ligand concentration 4, replicate 1): 34126
Fluorescence intensity, fluorescence competitive binding assay, OBP11 (SfurOBP11; ligand concentration 4, replicate 2): 38977
Fluorescence intensity, fluorescence competitive binding assay, OBP11 (SfurOBP11; ligand concentration 4, replicate 3): 36540
Fluorescence intensity, fluorescence competitive binding assay, OBP11 (SfurOBP11; ligand concentration 6, replicate 1): 35921
Fluorescence intensity, fluorescence competitive binding assay, OBP11 (SfurOBP11; ligand concentration 6, replicate 2): 34102
Fluorescence intensity, fluorescence competitive binding assay, OBP11 (SfurOBP11; ligand concentration 6, replicate 3): 34901
Fluorescence intensity, fluorescence competitive binding assay, OBP11 (SfurOBP11; ligand concentration 8, replicate 1): 31879
Fluorescence intensity, fluorescence competitive binding assay, OBP11 (SfurOBP11; ligand concentration 8, replicate 2): 34190
Fluorescence intensity, fluorescence competitive binding assay, OBP11 (SfurOBP11; ligand concentration 8, replicate 3): 34940
Fluorescence intensity, fluorescence competitive binding assay, OBP11 (SfurOBP11; ligand concentration 10, replicate 1): 32152
Fluorescence intensity, fluorescence competitive binding assay, OBP11 (SfurOBP11; ligand concentration 10, replicate 2): 33920
Fluorescence intensity, fluorescence competitive binding assay, OBP11 (SfurOBP11; ligand concentration 10, replicate 3): 34003
Fluorescence intensity, fluorescence competitive binding assay, OBP11 (SfurOBP11; ligand concentration 12, replicate 1): 31331
Fluorescence intensity, fluorescence competitive binding assay, OBP11 (SfurOBP11; ligand concentration 12, replicate 2): 31885
Fluorescence intensity, fluorescence competitive binding assay, OBP11 (SfurOBP11; ligand concentration 12, replicate 3): 32147
Fluorescence intensity, fluorescence competitive binding assay, OBP11 (SfurOBP11; ligand concentration 14, replicate 1): 27789
Fluorescence intensity, fluorescence competitive binding assay, OBP11 (SfurOBP11; ligand concentration 14, replicate 2): 28913
Fluorescence intensity, fluorescence competitive binding assay, OBP11 (SfurOBP11; ligand concentration 14, replicate 3): 26664
Fluorescence intensity, fluorescence competitive binding assay, OBP11 (SfurOBP11; ligand concentration 16, replicate 1): 26184
Fluorescence intensity, fluorescence competitive binding assay, OBP11 (SfurOBP11; ligand concentration 16, replicate 2): 25844
Fluorescence intensity, fluorescence competitive binding assay, OBP11 (SfurOBP11; ligand concentration 16, replicate 3): 25199
Fluorescence intensity, fluorescence competitive binding assay, OBP11 (SfurOBP11; ligand concentration 18, replicate 1): 30237
Fluorescence intensity, fluorescence competitive binding assay, OBP11 (SfurOBP11; ligand concentration 18, replicate 2): 30011
Fluorescence intensity, fluorescence competitive binding assay, OBP11 (SfurOBP11; ligand concentration 18, replicate 3): 30462
Fluorescence intensity, fluorescence competitive binding assay, OBP11 (SfurOBP11; ligand concentration 20, replicate 1): 29291
Fluorescence intensity, fluorescence competitive binding assay, OBP11 (SfurOBP11; ligand concentration 20, replicate 2): 29263
Fluorescence intensity, fluorescence competitive binding assay, OBP11 (SfurOBP11; ligand concentration 20, replicate 3): 28048
IC50 (SfurOBP1): > 20 µM
Fluorescence competitive binding assay, fluorescence intensity (SfurOBP1; ligand concentration 2 (μM)): 6084 and 5184 and 7029
Fluorescence competitive binding assay, fluorescence intensity (SfurOBP1; ligand concentration 4 (μM)): 5717 and 6456 and 6034
Fluorescence competitive binding assay, fluorescence intensity (SfurOBP1; ligand concentration 6 (μM)): 5873 and 6101 and 6679
Fluorescence competitive binding assay, fluorescence intensity (SfurOBP1; ligand concentration 8 (μM)): 5733 and 6957 and 6693
Fluorescence competitive binding assay, fluorescence intensity (SfurOBP1; ligand concentration 10 (μM)): 5847 and 5923 and 6121
Fluorescence competitive binding assay, fluorescence intensity (SfurOBP1; ligand concentration 12 (μM)): 6065 and 6137 and 6412
Fluorescence competitive binding assay, fluorescence intensity (SfurOBP1; ligand concentration 14 (μM)): 7822 and 5806 and 6262
Fluorescence competitive binding assay, fluorescence intensity (SfurOBP1; ligand concentration 16 (μM)): 5059 and 6382 and 5339
Fluorescence competitive binding assay, fluorescence intensity (SfurOBP1; ligand concentration 18 (μM)): 6537 and 6532 and 5815
Fluorescence competitive binding assay, fluorescence intensity (SfurOBP1; ligand concentration 20 (μM)): 6056 and 5740 and 5464
IC50 (SfurOBP3): > 20 µM
Fluorescence competitive binding assay, fluorescence intensity (SfurOBP3; ligand concentration 2): 45666 and 44893 and 46206
Fluorescence competitive binding assay, fluorescence intensity (SfurOBP3; ligand concentration 4): 43749 and 45410 and 42660
Fluorescence competitive binding assay, fluorescence intensity (SfurOBP3; ligand concentration 6): 44364 and 44740 and 45115
Fluorescence competitive binding assay, fluorescence intensity (SfurOBP3; ligand concentration 8): 41369 and 43894 and 46339
Fluorescence competitive binding assay, fluorescence intensity (SfurOBP3; ligand concentration 10): 41142 and 43565 and 45619
Fluorescence competitive binding assay, fluorescence intensity (SfurOBP3; ligand concentration 12): 38618 and 37689 and 38140
Fluorescence competitive binding assay, fluorescence intensity (SfurOBP3; ligand concentration 14): 35045 and 37361 and 38462
Fluorescence competitive binding assay, fluorescence intensity (SfurOBP3; ligand concentration 16): 32691 and 35765 and 36425
Fluorescence competitive binding assay, fluorescence intensity (SfurOBP3; ligand concentration 18): 35273 and 34668 and 35335
Fluorescence competitive binding assay, fluorescence intensity (SfurOBP3; ligand concentration 20): 34176 and 32081 and 34822
IC50 (SfurOBP2): > 20 µM
Fluorescence competitive binding assay, OBP2 (raw fluorescence reading) (SfurOBP2; ligand concentration 2 (unit not given), replicate column 1 of 3): 22475
Fluorescence competitive binding assay, OBP2 (raw fluorescence reading) (SfurOBP2; ligand concentration 2 (unit not given), replicate column 2 of 3): 19579
Fluorescence competitive binding assay, OBP2 (raw fluorescence reading) (SfurOBP2; ligand concentration 2 (unit not given), replicate column 3 of 3): 19869
Fluorescence competitive binding assay, OBP2 (raw fluorescence reading) (SfurOBP2; ligand concentration 4 (unit not given), replicate column 1 of 3): 18324
Fluorescence competitive binding assay, OBP2 (raw fluorescence reading) (SfurOBP2; ligand concentration 4 (unit not given), replicate column 2 of 3): 21526
Fluorescence competitive binding assay, OBP2 (raw fluorescence reading) (SfurOBP2; ligand concentration 4 (unit not given), replicate column 3 of 3): 18676
Fluorescence competitive binding assay, OBP2 (raw fluorescence reading) (SfurOBP2; ligand concentration 6 (unit not given), replicate column 1 of 3): 20143
Fluorescence competitive binding assay, OBP2 (raw fluorescence reading) (SfurOBP2; ligand concentration 6 (unit not given), replicate column 2 of 3): 19481
Fluorescence competitive binding assay, OBP2 (raw fluorescence reading) (SfurOBP2; ligand concentration 6 (unit not given), replicate column 3 of 3): 21546
Fluorescence competitive binding assay, OBP2 (raw fluorescence reading) (SfurOBP2; ligand concentration 8 (unit not given), replicate column 1 of 3): 18566
Fluorescence competitive binding assay, OBP2 (raw fluorescence reading) (SfurOBP2; ligand concentration 8 (unit not given), replicate column 2 of 3): 19629
Fluorescence competitive binding assay, OBP2 (raw fluorescence reading) (SfurOBP2; ligand concentration 8 (unit not given), replicate column 3 of 3): 19018
Fluorescence competitive binding assay, OBP2 (raw fluorescence reading) (SfurOBP2; ligand concentration 10 (unit not given), replicate column 1 of 3): 17948
Fluorescence competitive binding assay, OBP2 (raw fluorescence reading) (SfurOBP2; ligand concentration 10 (unit not given), replicate column 2 of 3): 18880
Fluorescence competitive binding assay, OBP2 (raw fluorescence reading) (SfurOBP2; ligand concentration 10 (unit not given), replicate column 3 of 3): 17034
Fluorescence competitive binding assay, OBP2 (raw fluorescence reading) (SfurOBP2; ligand concentration 12 (unit not given), replicate column 1 of 3): 17194
Fluorescence competitive binding assay, OBP2 (raw fluorescence reading) (SfurOBP2; ligand concentration 12 (unit not given), replicate column 2 of 3): 16713
Fluorescence competitive binding assay, OBP2 (raw fluorescence reading) (SfurOBP2; ligand concentration 12 (unit not given), replicate column 3 of 3): 16298
Fluorescence competitive binding assay, OBP2 (raw fluorescence reading) (SfurOBP2; ligand concentration 14 (unit not given), replicate column 1 of 3): 15375
Fluorescence competitive binding assay, OBP2 (raw fluorescence reading) (SfurOBP2; ligand concentration 14 (unit not given), replicate column 2 of 3): 15983
Fluorescence competitive binding assay, OBP2 (raw fluorescence reading) (SfurOBP2; ligand concentration 14 (unit not given), replicate column 3 of 3): 16080
Fluorescence competitive binding assay, OBP2 (raw fluorescence reading) (SfurOBP2; ligand concentration 16 (unit not given), replicate column 1 of 3): 16976
Fluorescence competitive binding assay, OBP2 (raw fluorescence reading) (SfurOBP2; ligand concentration 16 (unit not given), replicate column 2 of 3): 14612
Fluorescence competitive binding assay, OBP2 (raw fluorescence reading) (SfurOBP2; ligand concentration 16 (unit not given), replicate column 3 of 3): 14664
Fluorescence competitive binding assay, OBP2 (raw fluorescence reading) (SfurOBP2; ligand concentration 18 (unit not given), replicate column 1 of 3): 15874
Fluorescence competitive binding assay, OBP2 (raw fluorescence reading) (SfurOBP2; ligand concentration 18 (unit not given), replicate column 2 of 3): 15679
Fluorescence competitive binding assay, OBP2 (raw fluorescence reading) (SfurOBP2; ligand concentration 18 (unit not given), replicate column 3 of 3): 13833
Fluorescence competitive binding assay, OBP2 (raw fluorescence reading) (SfurOBP2; ligand concentration 20 (unit not given), replicate column 1 of 3): 14349
Fluorescence competitive binding assay, OBP2 (raw fluorescence reading) (SfurOBP2; ligand concentration 20 (unit not given), replicate column 2 of 3): 13969
Fluorescence competitive binding assay, OBP2 (raw fluorescence reading) (SfurOBP2; ligand concentration 20 (unit not given), replicate column 3 of 3): 12873
